From publication PMC9280334 (Frontiers in Chemistry, 2022)

Tests used:
AChE (electric eel) = molecular target: T1, AChE (electric eel) (Electrophorus electricus, UniProt O42275); test: biochemical; format: biochemical; conditions: electric eel AChE; mean ± SEM of three experiments
T1 construct: purchased Sigma-Aldrich
Description: (§1) AChE, BuChE, 5,5'-dithiobis (2-nitrobenzoic acid) (DTNB), acetyl- and butyrylthiocholine iodides were purchased from Sigma-Aldrich. Five different concentrations of the corresponding compounds in ethanol-DMSO (9:1) were prepared. […] After 3 min of incubation, the substrate solution (acetylthiocholine iodide or butyrylthiocholine iodide, 0.05 M) was added and then incubated for at least 1 min at 25°C. […] The inhibition curve was obtained by plotting the percentage of enzyme activity (100% for the reference) versus the logarithm of the tested compound concentration. […]

BuChE (equine serum) = molecular target: T2, BuChE (equine serum) (Equus caballus, UniProt P81908); test: biochemical; format: biochemical; conditions: equine serum BuChE; mean ± SEM of three experiments
T2 construct: purchased Sigma-Aldrich
T2 sequence (P81908 whole entry): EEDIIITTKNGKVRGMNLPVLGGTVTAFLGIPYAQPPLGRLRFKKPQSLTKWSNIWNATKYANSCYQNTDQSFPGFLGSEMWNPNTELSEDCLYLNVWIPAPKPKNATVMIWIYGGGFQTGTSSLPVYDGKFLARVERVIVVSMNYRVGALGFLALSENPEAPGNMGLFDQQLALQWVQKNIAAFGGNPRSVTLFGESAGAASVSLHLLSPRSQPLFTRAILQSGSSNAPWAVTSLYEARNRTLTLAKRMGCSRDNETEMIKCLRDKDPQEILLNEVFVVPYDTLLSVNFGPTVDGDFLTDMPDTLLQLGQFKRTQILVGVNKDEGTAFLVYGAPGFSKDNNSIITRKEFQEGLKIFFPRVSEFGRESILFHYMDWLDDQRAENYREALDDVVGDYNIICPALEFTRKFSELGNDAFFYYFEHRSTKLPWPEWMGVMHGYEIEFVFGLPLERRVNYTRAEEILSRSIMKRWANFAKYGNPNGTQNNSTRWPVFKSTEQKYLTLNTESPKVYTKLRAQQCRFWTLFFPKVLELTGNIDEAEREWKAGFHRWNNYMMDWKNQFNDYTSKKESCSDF
Description: as §1

PC12 cells = test: Neuroprotection against H2O2-induced cell death in PC12 cells (MTT); format: cell-based; conditions: H2O2 (150 μM)-induced injury, mean ± SEM
Description: The cell viability was measured using MTT [3-(4,5-dimethylthiazol-2-yl)-2,5-diphenyl tetrazolium bromide] assay ([Datki et al., 2003]). PC12 cells (from the Iranian Biological Resource Center, IBRC) received different treatments, including no treatment (control), 150 μM H2O2 alone, or 150 μM H2O2 in combination with 0.1–50 μM of the tested compound. The cells were seeded at 1 × 10^4 cells/well and incubated at 37 °C under a 5% CO2 atmosphere for 24 h, then treated with the tested compound and incubated for 3 h. Next, the cells were exposed to H2O2 for 2 h again. The MTT solution (20 μl, 5 mg/ml) was next replaced with the medium and incubated for 4 h. 100 μl of DMSO was added to dissolve the formazan precipitate. Absorbance was then measured at 570 nm using a multi-mode plate reader (Biotek, Winooski, VT). Cell viability is expressed as a percentage relative to the untreated control.

Aβ1-42 = molecular target: T3, Aβ1-42 (Homo sapiens, UniProt P05067); test: Inhibition of self-induced Aβ1-42 aggregation (ThT assay); format: biochemical; conditions: Aβ1-42 20 μM, compound 100 μM, after 48 h, ThT, mean ± SEM of three experiments
T3 construct: Amyloid-β protein 1–42 (Sigma A9810) was dissolved; purchased Sigma A9810
T3 sequence (P05067 672-713 limits assumed): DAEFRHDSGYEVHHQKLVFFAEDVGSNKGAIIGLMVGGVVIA
Description: Inhibitory properties of the compounds on self-induced and AChE-induced aggregation of amyloid-β protein 1–42 was determined using a thioflavin T (ThT)-based fluorescence assay with slight modifications ([Levine, 1993]). The ThT excitation/emission was measured at 448 nm/490 nm at 48 h using a SpectraMax® Microplate Reader. Amyloid-β protein 1–42 (Sigma A9810) was dissolved in Phosphate Buffer Saline pH 7.4 (PBS, HyClone Thermo Scientific) containing ammonium hydroxide (1%). Aβ1-42 (50 μM) was incubated for 24 h at 37°C for prefibrillation.
To determine AChE-induced Aβ1-42 aggregation, Aβ1-42 (20 μl) ± human recombinant AChE (0.01 u/ml, Sigma C1682) were added to […] of PBS buffer pH 7.4 including 0.15 M NaCl and 20 μM thioflavin T (ThT). The mixture was incubated at 37°C in the absence and presence of the compounds (100 μM) and the fluorescence intensities were determined. Due to the presence of the tested compounds, inhibition of self- or AChE-induced aggregation percent was determined by the following calculation: [100-((IFi/IFo) × 100)] where IFi and IFo are the fluorescence intensities obtained for Aβ ± AChE in the presence and in the absence of inhibitors.

T1 sequence (O42275 24-633): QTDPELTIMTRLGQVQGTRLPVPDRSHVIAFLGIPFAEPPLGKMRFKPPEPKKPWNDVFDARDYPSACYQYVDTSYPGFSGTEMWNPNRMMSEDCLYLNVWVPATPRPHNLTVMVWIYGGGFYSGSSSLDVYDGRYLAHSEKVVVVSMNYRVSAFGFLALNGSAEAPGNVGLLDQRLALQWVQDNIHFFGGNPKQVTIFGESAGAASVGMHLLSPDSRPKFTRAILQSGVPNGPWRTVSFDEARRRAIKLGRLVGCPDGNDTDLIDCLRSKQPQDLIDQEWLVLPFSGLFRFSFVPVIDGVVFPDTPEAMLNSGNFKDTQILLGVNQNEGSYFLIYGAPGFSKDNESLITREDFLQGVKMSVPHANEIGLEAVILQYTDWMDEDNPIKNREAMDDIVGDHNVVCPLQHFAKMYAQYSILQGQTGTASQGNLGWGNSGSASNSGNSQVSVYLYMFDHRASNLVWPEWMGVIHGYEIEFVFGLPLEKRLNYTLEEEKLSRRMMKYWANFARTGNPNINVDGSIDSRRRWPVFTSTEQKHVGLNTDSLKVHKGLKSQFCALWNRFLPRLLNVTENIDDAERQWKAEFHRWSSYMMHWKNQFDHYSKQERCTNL

| SMILES | IC50 (AChE (electric eel)) [nM] | IC50 (BuChE (equine serum)) [nM] | PC12 cell viability (% of control) (PC12 cells; 0.1 μM compound) | PC12 cell viability (% of control) (PC12 cells; 1 μM compound) | PC12 cell viability (% of control) (PC12 cells; 5 μM compound) | PC12 cell viability (% of control) (PC12 cells; 10 μM compound) | PC12 cell viability (% of control) (PC12 cells; 20 μM compound) | PC12 cell viability (% of control) (PC12 cells; 50 μM compound) | Inhibition of self-induced Aβ aggregation (Aβ1-42) [%] |
| --- | --- | --- | --- | --- | --- | --- | --- | --- | --- |
| COc1ccc2oc(=O)c(-c3ccc(OCCC[n+]4ccccc4)cc3)cc2c1.[Br-] [Compound 3b, 1-(3-(4-(6-Methoxy-2-oxo-2H-chromen-3-yl)phenoxy)propyl)pyridinium Bromide] | 4 ± 1 | 68 ± 6 | 31.7 ± 1.4 % of control | 37.6 ± 1.1 % of control | 43.3 ± 0.9 % of control | 45.4 ± 1.3 % of control | 49.6 ± 0.9 % of control | 54.3 ± 1.6 % of control |  |
| COc1ccc2cc(-c3ccc(OCCC[n+]4ccccc4)cc3)c(=O)oc2c1 [Compound 3c, 1-(3-(4-(7-Methoxy-2-oxo-2H-chromen-3-yl)phenoxy)propyl)pyridinium Bromide] | 7 ± 1 | 57 ± 10 |  |  |  |  |  |  |  |
| COc1cccc2cc(-c3ccc(OCCC[n+]4ccccc4)cc3)c(=O)oc12 [Compound 3d, 1-(3-(4-(8-Methoxy-2-oxo-2H-chromen-3-yl)phenoxy)propyl)pyridinium Bromide] | 81 ± 4 | 79 ± 9 |  |  |  |  |  |  |  |
| O=c1oc2ccc(Br)cc2cc1-c1ccc(OCCC[n+]2ccccc2)cc1 [Compound 3e, 1-(3-(4-(6-Bromo-2-oxo-2H-chromen-3-yl)phenoxy)propyl)pyridinium Bromide] | 15 ± 3 | 33 ± 5 |  |  |  |  |  |  |  |
| O=c1oc2ccccc2cc1-c1ccc(OCCCC[n+]2ccccc2)cc1.[Br-] [Compound 3g, 1-(4-(4-(2-Oxo-2H-chromen-3-yl)phenoxy)butyl)pyridinium Bromide] | 7 ± 1 | 91 ± 18 | 30.2 ± 1.4 % of control | 33.6 ± 1.2 % of control | 36.6 ± 0.9 % of control | 45.8 ± 0.3 % of control | 48.7 ± 0.9 % of control | 49.9 ± 0.9 % of control |  |
| COc1ccc2oc(=O)c(-c3ccc(OCCCC[n+]4ccccc4)cc3)cc2c1 [Compound 3h, 1-(4-(4-(6-Methoxy-2-oxo-2H-chromen-3-yl)phenoxy)butyl)pyridinium Bromide] | 1000 ± 37 | 106 ± 8 |  |  |  |  |  |  |  |
| COc1ccc2cc(-c3ccc(OCCCC[n+]4ccccc4)cc3)c(=O)oc2c1 [Compound 3i, 1-(4-(4-(7-Methoxy-2-oxo-2H-chromen-3-yl)phenoxy)butyl)pyridinium Bromide] | 144 ± 9 | 46 ± 1 |  |  |  |  |  |  |  |
| COc1cccc2cc(-c3ccc(OCCCC[n+]4ccccc4)cc3)c(=O)oc12 [Compound 3j, 1-(4-(4-(8-Methoxy-2-oxo-2H-chromen-3-yl)phenoxy)butyl)pyridinium Bromide] | 31 ± 5 | 97 ± 19 |  |  |  |  |  |  |  |
| O=c1oc2ccc(Br)cc2cc1-c1ccc(OCCCC[n+]2ccccc2)cc1 [Compound 3k, 1-(4-(4-(6-Bromo-2-oxo-2H-chromen-3-yl)phenoxy)butyl)pyridinium Bromide] | 40 ± 5 | 92 ± 9 |  |  |  |  |  |  |  |
| O=c1oc2ccc([N+](=O)[O-])cc2cc1-c1ccc(OCCCC[n+]2ccccc2)cc1.[Br-] [Compound 3l, 1-(4-(4-(6-Nitro-2-oxo-2H-chromen-3-yl)phenoxy)butyl)pyridinium Bromide] | 3 ± 1 | 59 ± 11 | 23.7 ± 0.5 % of control | 27.3 ± 1.2 % of control | 33.5 ± 1.2 % of control | 37.8 ± 1.0 % of control | 51.6 ± 1.1 % of control | 55.7 ± 2.0 % of control |  |
| O=c1oc2ccccc2cc1-c1ccc(OCCCCC[n+]2ccccc2)cc1 [Compound 3m, 1-(5-(4-(2-Oxo-2H-chromen-3-yl)phenoxy)pentyl)pyridinium Bromide] | 72 ± 8 | 86 ± 10 |  |  |  |  |  |  |  |
| COc1cccc2cc(-c3ccc(OCCCCC[n+]4ccccc4)cc3)c(=O)oc12 [Compound 3n, 1-(5-(4-(8-Methoxy-2-oxo-2H-chromen-3-yl)phenoxy)pentyl)pyridinium Bromide] | 15 ± 2 | 123 ± 24 |  |  |  |  |  |  |  |
| O=c1oc2ccc([N+](=O)[O-])cc2cc1-c1ccc(OCCCCC[n+]2ccccc2)cc1 [Compound 3o, 1-(5-(4-(6-Nitro-2-oxo-2H-chromen-3-yl)phenoxy)pentyl)pyridinium Bromide] | 22 ± 4 | 27 ± 2 |  |  |  |  |  |  |  |
| O=c1oc2ccc(Br)cc2cc1-c1ccc(OCCCCC[n+]2ccccc2)cc1 [Compound 3p, 1-(5-(4-(6-Bromo-2-oxo-2H-chromen-3-yl)phenoxy)pentyl)pyridinium Bromide] | 3 | 49 ± 5 |  |  |  |  |  |  |  |
| CCc1ccc(C)[n+](CCCCCOc2ccc(-c3cc4cc(Br)ccc4oc3=O)cc2)c1 [Compound 3q, 1-(5-(4-(6-Bromo-2-oxo-2H-chromen-3-yl)phenoxy)pentyl)-5-ethyl-2-methylpyridin-1-ium Bromide] | 19 ± 1.6 | 22 ± 2.3 |  |  |  |  |  |  |  |
| CN(C)c1cc[n+](CCCOc2ccc(-c3cc4ccccc4oc3=O)cc2)cc1 [Compound 3s, 4-(Dimethylamino)-1-(3-(4-(2-oxo-2H-chromen-3-yl)phenoxy)propyl)pyridin-1-ium Bromide] | 22 ± 1.9 | 34 ± 2.6 |  |  |  |  |  |  |  |
| COc1cc2c(cc1OC)C(=O)C(CC1CCN(Cc3ccccc3)CC1)C2 (stereo not drawn) [Donepezil, reference compound] |  |  |  |  |  |  |  |  | 30.8 ± 1.7 |
| O=c1c(O)c(-c2ccc(O)c(O)c2)oc2cc(O)cc(O)c12 [Quercetin, reference compound] |  |  | 37.7 ± 1.2 % of control | 44.2 ± 0.7 % of control | 50.7 ± 0.1 % of control | 55.8 ± 0.3 % of control | 59.6 ± 0.8 % of control | 61.0 ± 0.8 % of control |  |
